Assay results published in US20090306080A1, “VETERINARY FORMULATION” (priority 2006, published 2009).

Format: physicochemical
Conditions: pH 7
Excerpt: The solubility of cyromazine in a range of organic solvents including solvents which are commonly used in topical spray-on formulations is shown in the table below.

Structure (SMILES): Nc1nc(N)nc(NC2CC2)n1 [cyromazine, 2-cyclopropyl-amino-4,6-diamino-s-triazine]
- Solubility (g/kg) at 20° C.: 1.3 (pH 7) g/kg
